These results are taken from ChEMBL document CHEMBL1201862, “PubChem BioAssay data set” (2004).

Test systems include PC-3; CCRF-CEM; DU-145; A549; UO-31; SK-MEL-28; COLO 205; SNB-75; A498; K562; RXF 393; SN12C; MOLT-4; LOX IMVI; NCI-H460; SW-620; UACC-62; Hs-578T; HOP-92; MCF7.
Holding throughout (test): NCI anticancer screen, dose series, 48 h

Structures are written as SMILES.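 Where inhibition never reached the appropriate level, the endpoint shown equals the highest concentration tested. Otherwise, values were interpolated linearly from a five-concentration, 48-hour dose response in 96-well plates. GI50 = concentration required for 50% inhibition of growth.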 Activity calls are given as the source filed them. Rule as the data show it: active = GI50 up to about 1.1 µM and inactive = higher.

On to `O=C(/C=C/c1ccccc1)CSc1nc2ccc(I)cc2c(=O)n1Cc1ccccc1`, for which the GI50 with PC-3 is 18.3 µM (inactive); with CCRF-CEM, 11.3 µM (inactive); with DU-145, 15.2 µM (inactive); in the test on A549 it was 39.9 µM (inactive); in the test with UO-31, 0.13 µM (active); in the test with SK-MEL-28 it was 99.5 µM (inactive). The GI50 in the test with COLO 205 was 17.5 µM (inactive); in the test with SNB-75, 29.8 µM (inactive); in the test with A498, 14.3 µM (inactive); with K562 it was 13.9 µM (inactive); with RXF 393 it was 17 µM (inactive); in the test with SN12C, 9.86 µM (inactive). The GI50 in the test on MOLT-4 is 9.82 µM (inactive); with LOX IMVI, 37 µM (inactive); with NCI-H460, 15.6 µM (inactive); in the test on SW-620, 38.6 µM (inactive); with UACC-62 it was 35.2 µM (inactive); in the test with Hs-578T, 25.3 µM (inactive). The GI50 was 5.55 µM (inactive) in the test on HOP-92 and 28.6 µM (inactive) in the test on MCF7.

For `O=C(/C=C/c1ccc(OCc2cccc(Cl)c2)cc1)NO`, the GI50 in the test with PC-3 is 12.6 µM (inactive); with CCRF-CEM it was 2.65 µM (inactive); in the test with DU-145 it was 15.3 µM (inactive); with A549, 18.9 µM (inactive); with UO-31, 4.78 µM (inactive); in the test with SK-MEL-28, 26.2 µM (inactive). For the same compound, the GI50 in the test on COLO 205 was 14 µM (inactive); with SNB-75 it was 20.4 µM (inactive); in the test with A498 it was 12.1 µM (inactive); with K562, 16.6 µM (inactive); in the test with RXF 393 it was 15.5 µM (inactive); in the test on SN12C, 20.6 µM (inactive). Further, the GI50 is 2.67 µM (inactive) in the test with MOLT-4; 6.28 µM (inactive) in the test on LOX IMVI; 15.9 µM (inactive) with NCI-H460; 10.1 µM (inactive) with SW-620; 13.1 µM (inactive) in the test with UACC-62; 35 µM (inactive) in the test on Hs-578T. For the same compound, the GI50 in the test with HOP-92 was 14.1 µM (inactive); in the test on MCF7, 39.5 µM (inactive).
